In PMC8171317, “Total synthesis, isolation, surfactant properties, and biological evaluation of ananatosides and related macrodilactone-containing rhamnolipids” (Chemical Science, 2021):

How the values were obtained:
[1] = Emulsifying activity against hydrocarbon contaminants; assay type: physicochemical; settings: cyclohexane and kerosene
Description: Therefore, the emulsifying properties of microbial biosurfactants 1–3 were evaluated against light as well as heavy hydrocarbon contaminants such as cyclohexane and kerosene, respectively (see Fig. S7 ^†).

[2] = Surface tension and CMC, Fisher tensiometer, du Noüy ring method; assay type: physicochemical; parameters: γ CMC (surface tension at CMC): unit not given here; settings: pH 7.0; synthetic samples
Description: Biosurfactants are molecules that can associate with each other leading to the formation of micelles. They can also interact with surfaces between phases of different polarity such as the air/water or oil/water interface.[77] To gain quantitative insights into the surface-active properties of microbial glycolipids, the surface tensions at CMC (γCMC) of ananatoside A (1) and ananatoside B (2) were measured using a Fisher tensiometer by means of the du Noüy ring method. The CMC, referring to the concentration of surfactant at which micelles start to form, was determined from a plot of surface tension again each concentration. […] Consequently, the surface tension measurements were performed quickly to avoid the precipitation of ananatoside A (1) into the aqueous medium.

Arabidopsis petiole = test: Extracellular ROS production, luminol chemiluminescence; assay type: cell-based, Arabidopsis thaliana; settings: 100 μM
Description: The only exception to this general trend was compound 5β. […]
ananatoside A (1) ananatoside B (2)
Figure S8. Extracellular ROS production following treatment of Arabidopsis petiole with […]
ananatoside A (1) or ananatoside B (2). Production of reactive oxygen species (ROS) was measured […]
in Arabidopsis petiole following treatment at 100 µM with ananatoside A (1) and ananatoside B […]
(2). Methanol (0.5%) was used as a control. ROS production was measured using the […]
chemiluminescence of luminol and photon counts were expressed as relative luminescence units […]
(RLUs). Data are mean ± SEM (n = 6). Experiments were realized three times with similar results.
(also on this page, place not known: S 8. ( 1) Luminescence (RLU) Luminescence (RLU)) […]
ranging between 200 µM and 1.56 µM. Triton X-100 was used as a positive hemolysis control.
The plate was then incubated at 37 °C with agitation at 150 rpm for 1 h and centrifuged at 1500 × g for 5 min. The supernatant was transferred in an empty plate and absorbance was measured at 540 nm using a Cytation3 microplate reader (Biotek). HC50 was calculated in comparison with the positive control. The experiment was performed in triplicate and repeated three times.
Plant Material and Growth Conditions. […]
Reactive Oxygen Species (ROS) Production. […] Luminescence (relative light units, RLU) was measured every 4

[3] = Cytotoxicity, resazurin assay; assay type: cell-based, human; settings: human, max tested 200 μM
Description: As the anticancer potential of microbial rhamnolipids has previously been reported,[16] we next sought to evaluate the in vitro cytotoxicity of our synthetic and natural glycolipids 1–6 against cancerous cell lines, i.e., human lung carcinoma (A549) and colorectal adenocarcinoma (DLD-1). The compounds were also tested against human normal skin fibroblasts (WS1) to estimate their selectivity towards cancer cells.
4. Experimental Procedures for Biological Evaluation and Surfactant Properties. […]
Cell Culture. Human lung carcinoma (A549), human colorectal adenocarcinoma (DLD-1), and human normal skin fibroblasts (WS1) cell lines were obtained from the American Type Culture Collection (ATCC). All cell lines were cultured in minimum essential medium containing Earle’s […]
salts and L-glutamine (Mediatech Cellgro, VA), to which were added 10% foetal bovine serum (Hyclone), vitamins (1×), penicillin (100 IU•mL-1), streptomycin (100 µg•mL−1), essential amino acids (1×), and sodium pyruvate (1×) (Mediatech Cellgro, VA). Cells were kept at 37 °C in a humidified environment containing 5% CO2.
Cytotoxicity Assay. Exponentially growing A549, DLD-1 or WS1 cells were plated in 96-well microplates (Costar, Corning Inc.) at a density of 5 × 10^3 cells per well in 100 µL of culture medium and were allowed to adhere for 16 h prior treatment. Increasing concentrations of each compound in biotech DMSO (Sigma-Aldrich) were then added (100 µL per well) and the cells were incubated for 48 h. The final concentration of DMSO in the culture medium was maintained at 0.5% (v/v) to avoid solvent toxicity. Cytotoxicity was assessed using resazurin9 on an automated 96-well Fluoroskan Ascent F1TM plate reader (Labsystems) using excitation and emission wavelengths of 530 and 590 nm, respectively. Fluorescence was proportional to the cellular metabolic activity in each well. Survival percentage was defined as the fluorescence in experimental wells as compared to that in control wells after subtraction of blank values. Each experiment was carried out three times in triplicate. IC50 results were expressed as means ± standard deviation. […]

[4] = DLD-1 colorectal adenocarcinoma cells

Row | CMC (critical micelle concentration) [2] | γ CMC (surface tension at CMC) [2] | SMILES | Emulsifying activity [1] | Extracellular ROS production (perception by plants) (Arabidopsis petiole) | IC50 at 48 h ([3]; A549 lung carcinoma cells) | IC50 at 48 h [3, 4] | IC50 at 48 h ([3]; WS1 normal skin fibroblasts)
1 | 43 ± 2 µM | 37 ± 1 | CCCCCCC[C@@H]1CC(=O)OC[C@H]2O[C@@H](O[C@H](CCCCCCC)CC(=O)O1)[C@H](O)[C@@H](O)[C@@H]2O [Compound 1, ananatoside A] | unable to form any emulsion | perceived by plants | 50 ± 7 µM | 58 ± 2 µM | 52 ± 4 µM
2 | 63 ± 2 µM | 28 ± 1 | CCCCCCC[C@H](CC(=O)O)OC(=O)C[C@@H](CCCCCCC)O[C@@H]1O[C@H](CO)[C@@H](O)[C@H](O)[C@H]1O [Compound 2, ananatoside B] | equally able to generate emulsions with cyclohexane and kerosene | perceived by plants | > 200 µM | > 200 µM | > 200 µM
